In patent US10633429B2, “Human antibody κ type light chain complex-containing composition and method for producing same” (JAPAN SCIENCE AND TECHNOLOGY AGENCY, priority 2013, dated 2020):

Columns and labels:
Format in all cases: cell-based
[1] = tested on: PANC-1 cell line (human pancreatic cancer cell line); experiment: Cytotoxicity assay (WST assay), PANC-1 cell line; conditions: Example 2, Fr. 3B set to 100%
Experimental: (§1) The cytotoxicity of each complex-containing composition to cancer cells was tested using cancer cell lines. As the cancer cell lines, A549 cell line (human alveolar epithelial cancer cell line), ES-2 cell line (human ovarian cancer cell line), MOLT-4 cell line (human acute lymphoblastic leukemia T cell line), BxPC-3 cell line (human pancreatic adenocarcinoma cell line), SNU-1 cell line (human metastatic gastric cancer cell line), and PANC-1 cell line (human pancreatic cancer cell line) were used.
(§2) All of these cell lines were purchased from ATCC (American Type Culture Collection). Here, the A549 cell line was cultured using a 10% FCS (fetal calf serum)-containing F-12K culture medium by a general method, the ES-2 cell line was cultured using a 10% FCS-containing McCoy's 5A culture medium by a general method, each of the MOLT-4 cell line, SNU-1 cell line, and BxPC-3 cell line was cultured using a 10% FCS-containing RPMI-1640 culture medium by a general method, the PANC-1 cell line was cultured using a 10% FCS-containing DMEM culture medium by a general method, and the WI-38 cell line was cultured using a 10% FCS-containing EMEM culture medium by a general method.
(§3) First, after being recovered by thawing the frozen cancer cell lines, the recovered cancer cell lines were seeded in a 96-well plate by 100 μL to be 5×10^3 cells/well (the number of seeds was appropriately adjusted by cell species). […] After culturing was carried out for 24 hours or 48 hours from the addition of the complex-containing composition (after cells are planted and cultivated for 48 hours or 72 hours), a WST-1 reagent (manufactured by Roche Inc.) was added to each well by 10 μL and incubated for 1, 1.5, and 2 hours to form a formazan dye, and then the absorbance (Abs at 450 nm) of the formazan dye was measured (WST assay). As a control, a human antibody κ type light chain not bound to metal ions or PBS was added instead of the complex-containing composition and cultured for 24 hours or 48 hours, and then WST assay was carried out. Based on the results of the obtained absorbance, the cell survival rate of the well added with the human antibody κ type light chain not bound to metal ions or the well added with the PBS was set to 100%, and the cell survival rate of each well was determined, so as to evaluate the cytotoxicity of the added complex-containing composition.

[2] = tested on: A549 cell line (human alveolar epithelial cancer cell line); experiment: Cytotoxicity assay (WST assay), A549 cell line; conditions: Example 5; C51 incubated with metal ions 4 μM or cisplatin 4 μM; 24 hours; PBS set to 100%
Experimental: as §1
(§4) All of these cell lines were purchased from ATCC (American Type Culture Collection). […]
First, after being recovered by thawing the frozen cancer cell lines, the recovered cancer cell lines were seeded in a 96-well plate by 100 μL to be 5×10^3 cells/well (the number of seeds was appropriately adjusted by cell species). […] After culturing was carried out for 24 hours or 48 hours from the addition of the complex-containing composition (after cells are planted and cultivated for 48 hours or 72 hours), a WST-1 reagent (manufactured by Roche Inc.) was added to each well by 10 μL and incubated for 1, 1.5, and 2 hours to form a formazan dye, and then the absorbance (Abs at 450 nm) of the formazan dye was measured (WST assay). […]

[3] = tested on: WI-38 cell line (human fetal lung fibroblast cell line); experiment: Cytotoxicity assay (WST assay), WI-38 control cell line; conditions: Example 5; cisplatin 4.2 μM; 24 hours; PBS set to 100%
Experimental: In addition, as a control, WI-38 cell line (human fetal lung fibroblast cell line) was also used.
as §4
as §3, with “As a control, a human antibody κ type light chain not bound to metal ions or PBS was added instead of the complex-containing composition and cultured for 24 hours or 48 hours, and then WST assay was carried out.” left out

[4] = tested on: SNU-1 cell line (human metastatic gastric cancer cell line); experiment: Cytotoxicity assay (WST assay), SNU-1 cell line
Experimental: as §1, §2
First, after being recovered by thawing the frozen cancer cell lines, the recovered cancer cell lines were seeded in a 96-well plate by 100 μL to be 5×10^3 cells/well (the number of seeds was appropriately adjusted by cell species). After culturing was carried out at 37° C. for 24 hours, a culture medium to be added to the 96-well plate was removed by decantation, and then each complex-containing composition prepared at a concentration of about 1 mg/mL was added to each well by 100 μL. After culturing was carried out for 24 hours or 48 hours from the addition of the complex-containing composition (after cells are planted and cultivated for 48 hours or 72 hours), a WST-1 reagent (manufactured by Roche Inc.) was added to each well by 10 μL and incubated for 1, 1.5, and 2 hours to form a formazan dye, and then the absorbance (Abs at 450 nm) of the formazan dye was measured (WST assay). As a control, a human antibody κ type light chain not bound to metal ions or PBS was added instead of the complex-containing composition and cultured for 24 hours or 48 hours, and then WST assay was carried out. Based on the results of the obtained absorbance, the cell survival rate of the well added with the human antibody κ type light chain not bound to metal ions or the well added with the PBS was set to 100%, and the cell survival rate of each well was determined, so as to evaluate the cytotoxicity of the added complex-containing composition.

[5] = #7_wt fractions 4 μM (100 μg/mL) or cisplatin 4 μM
[6] = Example 2, #7_wt fractions 4 μM (100 μg/mL) or cisplatin 4 μM, Fr. 3B set to 100%
[7] = Example 2, cisplatin 33 μM, Fr. 3B set to 100%

SMILES: N.N.[Cl][Pt][Cl] [Cisplatin, cisplatin]
- Relative cell survival rate, PANC-1 cell line, 24 h [1, 5]: 109.3%
- Relative cell survival rate, PANC-1 cell line, 48 h [1, 5]: 82.1%
- Relative cell survival rate, PANC-1 cell line, 24 h ([1]; cisplatin 33 μM): 60.3%
- Relative cell survival rate, PANC-1 cell line, 48 h ([1]; cisplatin 33 μM): 9.6%
- Relative cell survival rate [2]: about 60%
- Relative cell survival rate [3]: 40%
- Relative cell survival rate, SNU-1 cell line, 24 h [4, 6]: 85.0%
- Relative cell survival rate, SNU-1 cell line, 48 h [4, 6]: 32.5%
- Relative cell survival rate, SNU-1 cell line, 24 h [4, 7]: 32.0%
- Relative cell survival rate, SNU-1 cell line, 48 h [4, 7]: 5.8%
- Relative cell survival rate, SNU-1 cell line, 24 h ([4]; Example 3, cisplatin 4 μM, Fr. 3B (#7_C219A) set to 100%): 89.5%
